Columns and labels:
[1] = molecular target: T1, Peroxisome proliferator-activated receptor alpha (Homo sapiens, UniProt Q07869)
T1 sequence (Q07869 whole entry): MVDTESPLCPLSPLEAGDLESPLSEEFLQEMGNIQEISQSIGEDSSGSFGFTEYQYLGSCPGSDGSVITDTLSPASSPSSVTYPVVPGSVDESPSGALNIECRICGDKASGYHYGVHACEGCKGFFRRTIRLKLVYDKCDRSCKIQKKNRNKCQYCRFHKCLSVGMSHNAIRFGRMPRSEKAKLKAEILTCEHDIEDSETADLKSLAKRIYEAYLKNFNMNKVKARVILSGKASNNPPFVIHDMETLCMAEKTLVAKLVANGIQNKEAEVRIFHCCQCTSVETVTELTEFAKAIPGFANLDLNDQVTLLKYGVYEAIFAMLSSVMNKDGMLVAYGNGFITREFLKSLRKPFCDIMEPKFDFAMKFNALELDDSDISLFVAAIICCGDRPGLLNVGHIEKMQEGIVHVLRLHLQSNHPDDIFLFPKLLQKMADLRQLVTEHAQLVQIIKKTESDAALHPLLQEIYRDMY
Description: Agonist activity at human PPARalpha receptor by cell based transient transfection assay

[2] = molecular target: T2, Peroxisome proliferator-activated receptor gamma (Homo sapiens, UniProt P37231)
T2 sequence (P37231 whole entry): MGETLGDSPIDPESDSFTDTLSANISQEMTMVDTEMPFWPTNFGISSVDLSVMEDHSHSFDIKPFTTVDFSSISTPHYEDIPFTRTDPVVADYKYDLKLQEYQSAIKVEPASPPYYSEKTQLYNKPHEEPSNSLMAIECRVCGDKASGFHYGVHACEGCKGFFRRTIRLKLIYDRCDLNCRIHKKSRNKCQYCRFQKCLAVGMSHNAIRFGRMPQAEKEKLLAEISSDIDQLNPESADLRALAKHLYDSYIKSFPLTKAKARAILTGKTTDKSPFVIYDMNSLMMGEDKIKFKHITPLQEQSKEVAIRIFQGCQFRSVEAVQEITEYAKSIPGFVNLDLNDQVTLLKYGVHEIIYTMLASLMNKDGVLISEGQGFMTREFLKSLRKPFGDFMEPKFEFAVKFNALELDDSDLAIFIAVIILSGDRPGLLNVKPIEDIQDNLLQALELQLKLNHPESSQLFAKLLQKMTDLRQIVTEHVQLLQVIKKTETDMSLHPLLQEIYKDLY
Description: Agonist activity at human PPARgamma receptor by cell based transient transfection assay

[3] = molecular target: T3, Peroxisome proliferator-activated receptor delta (Homo sapiens, UniProt Q03181)
T3 sequence (Q03181 whole entry): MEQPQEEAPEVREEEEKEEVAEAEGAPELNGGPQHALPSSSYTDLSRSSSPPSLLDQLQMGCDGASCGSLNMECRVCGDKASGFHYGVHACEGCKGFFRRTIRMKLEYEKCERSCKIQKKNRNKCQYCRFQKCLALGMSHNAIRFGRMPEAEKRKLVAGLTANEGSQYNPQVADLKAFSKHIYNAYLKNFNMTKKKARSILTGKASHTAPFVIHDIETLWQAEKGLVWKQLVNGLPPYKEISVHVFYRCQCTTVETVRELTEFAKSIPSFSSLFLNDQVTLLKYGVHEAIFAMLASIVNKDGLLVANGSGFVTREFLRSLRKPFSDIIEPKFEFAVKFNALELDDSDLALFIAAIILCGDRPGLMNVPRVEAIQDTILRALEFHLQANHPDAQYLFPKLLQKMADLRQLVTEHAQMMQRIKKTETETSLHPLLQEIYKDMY
Description: (§1) Agonist activity at human PPARdelta receptor by cell based transient transfection assay

[4] = molecular target: T3, Peroxisome proliferator-activated receptor delta; remark: listed apart in the source
Description: as §1

[5] = molecular target: T4, Peroxisome proliferator-activated receptor delta (Mus musculus, UniProt P35396)
T4 sequence (P35396 whole entry): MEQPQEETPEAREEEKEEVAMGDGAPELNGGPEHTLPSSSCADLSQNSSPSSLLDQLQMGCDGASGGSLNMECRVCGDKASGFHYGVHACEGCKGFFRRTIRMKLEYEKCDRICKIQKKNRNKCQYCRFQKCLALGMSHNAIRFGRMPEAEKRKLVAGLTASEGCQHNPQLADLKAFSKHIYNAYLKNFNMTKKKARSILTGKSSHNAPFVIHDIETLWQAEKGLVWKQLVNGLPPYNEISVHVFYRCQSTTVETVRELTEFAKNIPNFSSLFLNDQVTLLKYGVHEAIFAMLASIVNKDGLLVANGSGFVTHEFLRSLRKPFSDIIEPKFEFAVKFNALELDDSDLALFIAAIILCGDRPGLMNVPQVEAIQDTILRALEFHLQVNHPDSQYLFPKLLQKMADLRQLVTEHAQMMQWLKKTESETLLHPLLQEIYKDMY
Description: Agonist activity at mouse PPARdelta receptor by cell based transient transfection assay

[6] = molecular target: T5, Peroxisome proliferator-activated receptor alpha (Mus musculus, UniProt P23204)
T5 sequence (P23204 whole entry): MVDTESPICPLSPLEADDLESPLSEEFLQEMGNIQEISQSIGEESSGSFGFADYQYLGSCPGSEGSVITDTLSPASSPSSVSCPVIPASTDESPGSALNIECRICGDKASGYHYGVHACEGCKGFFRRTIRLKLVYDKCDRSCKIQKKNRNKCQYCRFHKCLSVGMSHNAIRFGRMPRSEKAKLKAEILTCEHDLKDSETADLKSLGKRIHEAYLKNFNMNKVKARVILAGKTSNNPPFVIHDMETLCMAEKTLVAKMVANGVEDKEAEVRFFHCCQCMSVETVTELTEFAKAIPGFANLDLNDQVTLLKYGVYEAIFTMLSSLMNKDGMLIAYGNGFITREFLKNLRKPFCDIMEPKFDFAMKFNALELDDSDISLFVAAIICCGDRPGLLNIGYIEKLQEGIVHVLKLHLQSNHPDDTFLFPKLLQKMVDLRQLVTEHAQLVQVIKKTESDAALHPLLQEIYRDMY
Description: Agonist activity at mouse PPARalpha receptor by cell based transient transfection assay

[7] = molecular target: T6, Peroxisome proliferator-activated receptor gamma (Mus musculus, UniProt P37238)
T6 sequence (P37238 whole entry): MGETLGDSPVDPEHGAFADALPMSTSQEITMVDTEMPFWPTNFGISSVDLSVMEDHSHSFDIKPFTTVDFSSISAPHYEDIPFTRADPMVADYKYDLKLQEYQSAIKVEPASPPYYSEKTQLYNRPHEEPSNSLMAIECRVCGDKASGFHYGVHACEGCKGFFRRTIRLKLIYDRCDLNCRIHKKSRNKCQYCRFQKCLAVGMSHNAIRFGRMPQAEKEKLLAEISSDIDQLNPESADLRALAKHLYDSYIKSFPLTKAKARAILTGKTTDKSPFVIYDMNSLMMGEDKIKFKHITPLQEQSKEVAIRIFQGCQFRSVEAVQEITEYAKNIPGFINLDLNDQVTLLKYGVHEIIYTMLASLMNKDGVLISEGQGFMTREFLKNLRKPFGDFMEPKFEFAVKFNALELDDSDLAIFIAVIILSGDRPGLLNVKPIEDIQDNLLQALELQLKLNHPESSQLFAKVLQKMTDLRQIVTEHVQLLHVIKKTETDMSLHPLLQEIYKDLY
Description: Agonist activity at mouse PPARgamma receptor by cell based transient transfection assay

Rattus norvegicus [8] = test: Decrease in total triglyceride level in Zucker fatty (fa/fa) rat at 30 mg/kg, bid after 5 days; format: functional; design: scale not given: the % may be the effect or the level left
[9] = Cmax in CD rat at […], iv and 5 mg/kg, po; format: ADME, organism-based; conditions: in vivo
Rattus norvegicus [10] = test: Decrease in insulin level in Zucker fatty (fa/fa) rat at 10 mg/kg, bid after 5 days; format: functional; design: scale not given: the % may be the effect or the level left
[11] = Half life in CD rat at […], iv and 5 mg/kg, po; format: ADME, organism-based; conditions: in vivo
Rattus norvegicus [12] = test: Increase in liver weight in Zucker fatty (fa/fa) rat at 10 mg/kg, bid after 5 days; format: functional
Rattus norvegicus [13] = test: Decrease in total triglyceride level in Zucker fatty (fa/fa) rat at 10 mg/kg, bid after 5 days; format: functional; design: scale not given: the % may be the effect or the level left
[14] = Bioavailability in CD rat at […], iv and 5 mg/kg, po; format: ADME, organism-based; conditions: in vivo
[15] = Volume of distribution at steady state in CD rat at […], iv and 5 mg/kg, po; format: ADME, organism-based; conditions: in vivo, read-out: Vdss
[16] = AUC in CD rat at 5 mg/kg, po; format: ADME, organism-based; design: dose 5 mg/kg, route oral; conditions: plasma
[17] = Clearance in CD rat at […], iv and 5 mg/kg, po; format: ADME, organism-based; conditions: in vivo
Rattus norvegicus [18] = test: Increase in liver weight in Zucker fatty (fa/fa) rat at 30 mg/kg, bid after 5 days; format: functional
Rattus norvegicus [19] = test: Decrease in insulin level in Zucker fatty (fa/fa) rat at 30 mg/kg, bid after 5 days; format: functional; design: scale not given: the % may be the effect or the level left

SMILES	EC50 [1] [nM]	EC50 [2] [nM]	EC50 [3] [nM]	also measured
Cc1nc(-c2ccc(C(C)(C)C)cc2)sc1C(=O)NCc1ccc(OC(C)(C)C(=O)O)cc1	4	800	10000	
Cn1nc(-c2ccc(C(C)(C)C)cc2)cc1C(=O)NCc1ccc(OC(C)(C)C(=O)O)cc1	160	1000		EC50 [4]: 10000 nM
Cc1cc(CNC(=O)c2cc(-c3ccc(C(C)C)cc3)n(C)n2)ccc1OC(C)(C)C(=O)O		8	4850	EC50 [5]: 7100 nM; EC50 [6]: 280 nM; EC50 [7]: 16 nM
Cc1cc(CNC(=O)c2cc(-c3ccc(CC(C)C)cc3)nn2C)ccc1OC(C)(C)C(=O)O	45	50	2870	
CCn1nc(C(=O)NCc2ccc(OC(C)(C)C(=O)O)c(C)c2)cc1-c1ccc(C(C)(C)C)cc1	10	15	> 25000	EC50 [5]: > 25000 nM; EC50 [6]: 2260 nM; EC50 [7]: 36 nM
C=CCn1nc(-c2ccc(C(C)(C)C)cc2)cc1C(=O)NCc1ccc(OC(C)(C)C(=O)O)c(C)c1	45	60		
Cc1cc(CNC(=O)c2cc(-c3ccc(C(C)C)cc3)nn2C)ccc1OC(C)(C)C(=O)O	20	50	1360	
Cc1cc(CNC(=O)c2cc(-c3ccc(N4CCOCC4)cc3)n(C)n2)ccc1OC(C)(C)C(=O)O	85	110	35	
Cc1cc(CNC(=O)c2cc(-c3ccc(-c4ccccc4C)cc3)n(C)n2)ccc1OC(C)(C)C(=O)O	90	30		EC50 [5]: > 25000 nM; EC50 [6]: 1800 nM; EC50 [7]: 60 nM
COc1cc(CNC(=O)c2cc(-c3ccc(C(C)(C)C)cc3)n(C)n2)ccc1OC(C)(C)C(=O)O	> 25000	176	> 25000	
COc1cc(CNC(=O)c2cc(-c3ccc(CC(C)C)cc3)n(C)n2)ccc1OC(C)(C)C(=O)O	> 25000		> 25000	
C=CCOc1ccc(-c2cc(C(=O)NCc3ccc(OC(C)(C)C(=O)O)c(C)c3)nn2C)cc1			> 25000	
Cc1cc(CNC(=O)c2cc(-c3ccc(OCc4ccccc4)cc3)n(C)n2)ccc1OC(C)(C)C(=O)O	> 25000	80	> 25000	
CCn1nc(-c2ccc(C(C)(C)C)cc2)cc1C(=O)NCc1ccc(OC(C)(C)C(=O)O)c(C)c1	50	30	2700	
Cc1cc(CNC(=O)c2cc(-c3ccc(N4CCCC4)cc3)n(C)n2)ccc1OC(C)(C)C(=O)O	8			
Cc1cc(CNC(=O)c2cc(-c3ccc(C(C)(C)C)cc3)n(Cc3ccccc3)n2)ccc1OC(C)(C)C(=O)O	200		25000	
CCn1nc(C(=O)NCc2ccc(OC(C)(C)C(=O)O)c(OC)c2)cc1-c1ccc(C(C)(C)C)cc1	> 25000	190	> 25000	
C=CCn1nc(C(=O)NCc2ccc(OC(C)(C)C(=O)O)c(C)c2)cc1-c1ccc(C(C)(C)C)cc1				EC50 [5]: > 25000 nM; EC50 [6]: 6000 nM; EC50 [7]: 150 nM
Cc1cc(CNC(=O)c2cc(-c3ccc(C(C)(C)C)cc3)n(C)n2)ccc1OC(C)(C)C(=O)O	10		> 10000	Activity (Rattus norvegicus [8]): 45%; Cmax [9]: 1130 ng/mL; Activity (Rattus norvegicus [10]): 10%; half-life [11]: 49.8 min; Activity (Rattus norvegicus [12]): 9%; Activity (Rattus norvegicus [13]): 57%; bioavailability [14]: 22%; Vd [15]: 0.3 L/kg; EC50 [5]: > 25000 nM; AUC [16]: 1790 ng·h/mL; clearance [17]: 17 mL/min/kg; Activity (Rattus norvegicus [18]): 14%; EC50 [6]: 640 nM; Activity (Rattus norvegicus [19]): 35%; EC50 [7]: 11 nM

From ChEMBL document CHEMBL1152145, “The discovery of equipotent PPARalpha/gamma dual activators” (Bioorg Med Chem Lett, 2008)
